Source: BigSolDB 2.1

Cc1cc(C)c(C(=O)P(=O)(c2ccccc2)c2ccccc2)c(C)c1
solubility (mole fraction)
Details | in acetone | in acetonitrile | in ethanol | in ethyl acetate | in isobutanol | in isopropanol | in methanol | in methyl acetate | in n-butanol | in n-propanol
273.15 K | 0.0685 | 0.0242 | 0.0761 | 0.043 | 0.0761 | 0.0262 | 0.11 | 0.0504 | 0.0795 | 0.0827
278.15 K | 0.0844 | 0.0312 | 0.0895 | 0.0529 | 0.0882 | 0.0366 | 0.125 | 0.0616 | 0.092 | 0.0983
283.15 K | 0.101 | 0.0482 | 0.107 | 0.0621 | 0.109 | 0.0544 | 0.145 | 0.0767 | 0.116 | 0.118
288.15 K | 0.12 | 0.0687 | 0.13 | 0.0819 | 0.133 | 0.0755 | 0.172 | 0.0963 | 0.139 | 0.139
293.15 K | 0.143 | 0.101 | 0.154 | 0.102 | 0.159 | 0.11 | 0.195 | 0.12 | 0.162 | 0.168
298.15 K | 0.169 | 0.144 | 0.184 | 0.126 | 0.187 | 0.158 | 0.233 | 0.149 | 0.2 | 0.196
303.15 K | 0.197 | 0.197 | 0.218 | 0.16 | 0.22 | 0.21 | 0.272 | 0.186 | 0.236 | 0.226
308.15 K | 0.232 | 0.271 | 0.266 | 0.194 | 0.256 | 0.276 | 0.298 | 0.229 | 0.271 | 0.262
